Data as given in US10590145B2, “Tetrahydrothiopyranopyrimidine derivatives as anti-HIV agent” (SHANDONG UNIVERSITY, priority 2016, dated 2020).
Read-outs that look alike come from different tables or passages of the source.

How the values were obtained:
[1] = test system: HIV-1 Y188L mutant strain; assay: Anti-HIV-1 activity in MT-4 cells (MTT method), Y188L; type: cell-based; conditions: Human immunodeficiency virus 1, MT4, read-out: EC50 (nM) Y188L
Method: (§1) Selected compounds were screened for inhibitory activity against HIV-1 using MTT method as describe previously by Christophe. Pannecouque et al. Nat. Protoc. 3 (2008) 427-434, and Rudi Pauwels et al. J. Virol. Methods 20 (1988) 309-321. Briefly, MT-4 cells infected with HIV-1 can only survive for 5 to 7 days without any treatment, but when HIV-1 inhibitors were added, they can protect MT-4 cell from cytopathic. Serial solution of compounds was added to MT-4 cells after infected with HIV-1, MTT method was used to detect the survival rate after culture for 5 to 7 days. EC50 value was defined as compound concentration required to achieve 50% protection of MT-4 cells against HIV-1-induced cytopathic effect. In vitro anti-HIV-1 assay was supported by Rega Institute for Medical Research.
(§2) • (1) MT-4 cells infected with HIV-1 viral strains (IIIB, L100I, K103N, Y181C, Y188L, E138K, F227L/V106A, Y181C/K103N) were provided by Rega Institute for Medical Research, Katholieke Universiteit Leuven, Belgium. • (2) MTT and formazan: sigma Chemical Co. • (3) Preparation of compounds: Stock solutions (10×final concentration) of test compounds is diluted with double distilled water for 5 folds and 5 concentrations of one compound are prepared. • (4) Reference drugs: Nevirapine (NVP), Efavirenz (EFV), Etravirine (ETV), Rilpivirine (RPV) and Azidothymidine (AZT). • (5) Method (MTT method): Serial five-fold dilutions of test compounds were added to cultured MT-4 cells infected with HIV-1, after 5 to 7 days, MTT was added and cultured for a few hours. Medium was removed and lysate was added followed by formazan, OD value was determined in 690 nm and 540 nm by microplate reader, and EC50 value was calculated. 2. Method
(§3) The MTT method was described briefly as follows: 96-well plastic microtiter trays were filled with 100 μL of complete medium. Subsequently, serial of tested compounds was added (25 μL) to two series of triplicate wells so as to allow simultaneous evaluation of their effects on HIV- and mock infected cells. 50 μL of 1×10^4 cells/mL MT-4 cells were added. After cultured for 5 days at 37° C. in humidified atmosphere in the presence of 5% CO2, MTT was added and cultured for another 2 h, then medium was removed and 100 μL isopropanol solution was added to lyse the cells. Formazan crystals were added and vibrated platform shaker for 10 min to solubilize the formazan crystals. Absorbances at 690 nm and 540 nm were read by using spectrophotometrically. EC50 was defined as the concentration achieving 50% protection from the cytopathic effect of the virus in infected cells.
(§4) Selected compounds prepared as described above were assayed in MT-4 cells infected with wide-type IIIB, L100I, K103N, Y181C, Y188L, E138K or double mutant RES056 (Y181C/K103N) and F227L/V106A HIV-1 strains. Nevirapine, Efavirenz, Etravirine, Rilpivirine and Azidothymidine were selected as reference drugs. The results were listed below as EC50 value (nM)

[2] = test system: HIV-1 E138K mutant strain; assay: Anti-HIV-1 activity in MT-4 cells (MTT method), E138K; type: cell-based; conditions: Human immunodeficiency virus 1, MT4, read-out: EC50 (nM) E138K
Method: as §1, §2, §3, §4

[3] = test system: HIV-1 Y181C mutant strain; assay: Anti-HIV-1 activity in MT-4 cells (MTT method), Y181C; type: cell-based; conditions: Human immunodeficiency virus 1, MT4, read-out: EC50 (nM) Y181C
Method: as §1, §2, §3, §4

[4] = test system: HIV-1 L100I mutant strain; assay: Anti-HIV-1 activity in MT-4 cells (MTT method), L100I; type: cell-based; conditions: Human immunodeficiency virus 1, MT4, read-out: EC50 (nM) L100I
Method: as §1, §2, §3, §4

[5] = test system: HIV-1 F227L/V106A double mutant strain; assay: Anti-HIV-1 activity in MT-4 cells (MTT method), F227L/V106A; type: cell-based; conditions: Human immunodeficiency virus 1, MT4, read-out: EC50 (nM) F227L/V106A
Method: as §1, §2, §3, §4

[6] = test system: HIV-1 K103N mutant strain; assay: Anti-HIV-1 activity in MT-4 cells (MTT method), K103N; type: cell-based; conditions: Human immunodeficiency virus 1, MT4, read-out: EC50 (nM) K103N
Method: as §1, §2, §3, §4

[7] = test system: HIV-1 double mutant RES056 (Y181C/K103N); assay: Anti-HIV-1 activity in MT-4 cells (MTT method), RES056; type: cell-based; conditions: Human immunodeficiency virus 1, MT4, read-out: EC50 (nM) Y181C/K103N
Method: as §1, §2, §3, §4

[8] = test system: wide-type HIV-1 (strain IIIB); assay: Anti-HIV-1 activity in MT-4 cells (MTT method), wild-type; type: cell-based
Method: as §1, §2, §3, §4

[9] = Human immunodeficiency virus 1, IIIB, MT4, read-out: EC50 (nM) wt

Row | Structure (SMILES) | EC50 [1] [nM] | EC50 [2] [nM] | EC50 [3] [nM] | melting point [°C] | EC50 [4] [nM] | EC50 [5] [nM] | EC50 [6] [nM] | EC50 [7] [nM] | EC50 [8, 9] [nM] | Activity against wide-type HIV-1, folds better than NVP ([8]; wide-type HIV-1, relative to NVP) [folds] | Activity against wide-type HIV-1 compared with RPV ([8]; wide-type HIV-1, relative to RPV) | EC50 ([8]; Human immunodeficiency virus 1, MT4, MT-4 cells, 50% protection against HIV-1-induced cytopathicity, wt (IIIB), read-out: EC50 (nM) wt) [nM]
1 | Cc1cc(C#N)cc(C)c1Oc1nc(Nc2ccc(C#N)cc2)nc2c1[S+]([O-])CCC2 (stereo not shown) [IA-1-3, 4-((2-((4-cyanophenyl)amino)-5-oxido-7,8-dihydro-6H-thiopyrano[3,2-d]pyrimidin-4-yl)oxy)-3,5-dimethylbenzonitrile] | 10 to 100 | 10 to 100 | 10 to 100 | 247 to 249 | > 100 | > 100 | 10 to 100 | > 100 | < 10 |  |  | 
2 | Cc1cc(C#N)cc(C)c1Oc1nc(Nc2ccc(C#N)cc2)nc2c1S(=O)(=O)CCC2 [IA-1-4, 4-((2-((4-cyanophenyl)amino)-5,5-dioxido-7,8-dihydro-6H-thiopyrano[3,2-d]pyrimidin-4-yl)oxy)-3,5-dimethylbenzonitrile] | 10 to 100 | 10 to 100 | 10 to 100 | 263 to 265 | 10 to 100 | 10 to 100 | < 10 | 10 to 100 | < 10 | 30 | comparable | 
3 | Cc1cc(C#N)cc(C)c1Oc1nc(Nc2ccc(C#N)cc2)nc2c1SCCC2 [IA-1-1, 4-((2-((4-cyanophenyl)amino)-7,8-dihydro-6H-thiopyrano[3,2-d]pyrimidin-4-yl)oxy)-3,5-dimethylbenzonitrile] | 10 to 100 | 10 to 100 | 10 to 100 | 253 to 254 | 10 to 100 | 10 to 100 | < 10 | 10 to 100 | < 10 |  |  | 
4 | Cc1cc(C#N)cc(C)c1Oc1nc(NC2CCN(Cc3ccccc3C#N)CC2)nc2c1SCCC2 [IIA-1-7, 4-((2-((1-(2-cyanobenzyl)piperidin-4-yl)amino)-7,8-dihydro-6H-thiopyrano[3,2-d]pyrimidin-4-yl)oxy)-3,5-dimethylbenzonitrile] | > 100 | 10 to 100 | 10 to 100 |  | > 100 | > 100 | 10 to 100 | > 100 | < 10 |  |  | 
5 | Cc1ccnc2c1NC(=O)c1cccnc1N2C1CC1 [NVP, Nevirapine, reference compound] | > 100 | > 100 | > 100 |  | > 100 | > 100 | > 100 | > 100 |  |  |  | > 100
6 | Cc1cc(C#N)cc(C)c1Oc1nc(NC2CCN(Cc3ccc([N+](=O)[O-])cc3)CC2)nc2c1SCCC2 [IIA-1-12, 3,5-dimethyl-4-((2-((1-(4-nitrobenzyl)piperidin-4-yl)amino)-7,8-dihydro-6H-thiopyrano[3,2-d]pyrimidin-4-yl)oxy)benzonitrile] | 10 to 100 | 10 to 100 | > 100 |  | > 100 | > 100 | 10 to 100 | > 100 | < 10 |  |  | 
7 | Cc1cc(C#N)cc(C)c1Oc1nc(NC2CCN(c3cccc(C#N)c3)CC2)nc2c1SCCC2 [IIC-1-1, 4-((2-((1-(3-cyanophenyl)piperidin-4-yl)amino)-7,8-dihydro-6H-thiopyrano[3,2-d]pyrimidin-4-yl)oxy)-3,5-dimethylbenzonitrile] | > 100 | > 100 | > 100 |  | > 100 | > 100 | 10 to 100 | > 100 | 10 to 100 |  |  | 
8 | Cc1cc(C#N)cc(C)c1Oc1nc(NC2CCN(Cc3cccc(S(N)(=O)=O)c3)CC2)nc2c1SCCC2 [IIA-1-4, 3-((4-((4-(4-cyano-2,6-dimethylphenoxy)-7,8-dihydro-6H-thiopyrano[3,2-d]pyrimidin-2-yl)amino)piperidin-1-yl)methyl)benzenesulfonamide] | 10 to 100 | 10 to 100 | 10 to 100 |  | > 100 | 10 to 100 | 10 to 100 | > 100 | < 10 |  |  | 
9 | Cc1cc(C#N)cc(C)c1Oc1nc(Nc2ccc(C#N)cc2)nc(N)c1Br [ETV, Etravirine, reference compound] | 10 to 100 | 10 to 100 | 10 to 100 |  | < 10 | 10 to 100 | < 10 | 10 to 100 | < 10 |  |  | 
10 | CCOC(=O)c1ccc(CN2CCC(Nc3nc4c(c(Oc5c(C)cc(C#N)cc5C)n3)SCCC4)CC2)cc1 [IIA-1-10, ethyl 4-((4-((4-(4-cyano-2,6-dimethylphenoxy)-7,8-dihydro-6H-thiopyrano[3,2-d]pyrimidin-2-yl)amino)piperidin-1-yl)methyl)benzoate] | > 100 | > 100 | > 100 |  | > 100 | > 100 | 10 to 100 | > 100 | 10 to 100 |  |  | 
